The values below come from patent publication US8575167B2, “Spiro compounds having stearoyl-CoA desaturase action” (Takeda Pharmaceutical Company Limited, priority 2007, dated 2013).

The structures appear in SMILES notation.

For the test, the target named is T1, SCD (Rattus norvegicus, UniProt P07308).
T1 construct: an enzyme reaction using rat liver microsome (20 μg) was performed for 15 min; from tissue; host or cells: rat liver microsome fraction
T1 sequence (P07308 1-358): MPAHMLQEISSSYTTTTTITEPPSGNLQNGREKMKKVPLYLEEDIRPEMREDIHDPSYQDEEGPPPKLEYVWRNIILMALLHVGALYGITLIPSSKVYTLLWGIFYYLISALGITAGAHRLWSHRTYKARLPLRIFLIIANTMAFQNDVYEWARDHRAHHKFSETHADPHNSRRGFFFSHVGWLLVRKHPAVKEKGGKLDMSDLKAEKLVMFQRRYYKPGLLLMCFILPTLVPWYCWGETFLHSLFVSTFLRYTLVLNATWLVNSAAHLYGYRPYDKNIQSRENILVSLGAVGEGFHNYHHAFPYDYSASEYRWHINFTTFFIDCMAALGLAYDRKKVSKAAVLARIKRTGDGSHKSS
The experiment in a line: Measurement of SCD inhibitory activity using microsome (TLC detection system). The following applies: rat liver microsome (20 μg), 15 min, [14C] stearoyl-CoA; test compound (10 mM) diluted to 3/1000 with 3× buffer, 10 μL in 30 μL reaction; read-out: SCD activity inhibitory rate (%). Format: biochemical. The method, then: (Test Method: Measurement of SCD Inhibitory Activity Using Microsome (TLC Detection System))
A test compound (10 mM) diluted with DMSO in advance was secondarily diluted to 3/1000 with 3× buffer (300 mmol/L NaH2PO4 [pH 7.4], 450 mM KCl, 30 mM NaF, 9 mM MgCl2, 4.5 mM glutathione [reduced form], 0.3% BSA [fatty acid free, SIGMA]). The test compound (10 μL) diluted with the assay buffer was dispensed to a PP 96-deep well block, and a microsome fraction (10 μL) diluted with a microsome buffer was added thereto. The enzyme reaction was started by the addition of 10 μL of [^14C] stearoyl-CoA (American Radiolabeled Chemicals [ARC], Inc.) diluted to 10 μCi/mL with 9 mmol/L NADH. For evaluation of the compound, an enzyme reaction using rat liver microsome (20 μg) was performed for 15 min. The reaction was quenched by the addition of 10 μL of 2.5N NaOH, a plate seal was applied, and the reaction mixture was incubated overnight in a dry heater set to 65° C. to allow saponification. Solvent extraction of fatty acid was based on the Bligh&Dyer method (1). Formic acid:methanol:chloroform (1:6:3) (200 μL) was added, the state of single layer was maintained, the mixture was sufficiently stirred, and pure water (120 μL) was added to allow separation into two layers. The lower chloroform layer (10 μL) was spotted on reversed-phase TLC plate (RP-18, 1154230001, Merck Japan, Ltd.) and developed with acetonitrile:pure water:acetic:acid (95:4.5:0.5). The TLC plate was dried and transferred onto an Imaging Plate (Fuji Photo Film Co., Ltd.) for not less than 5 hr. For detection, BAS-5000 (Fuji Photo Film Co., Ltd) was used and the obtained spot images were converted to numerical values using Multi Gauge Ver2.3 (Fuji Photo Film Co., Ltd), based on which the SCD activity inhibitory rate (%) was determined.
As for `Cc1nsc(-c2ccc(N3CCC4(C=Cc5ccccc54)CC3)nn2)n1` [Example 2, 1′-[6-(3-methyl-1,2,4-thiadiazol-5-yl)pyridazin-3-yl]spiro[indene-1,4′-piperidine]], the inhibition at 10 µM was determined as 99%.
Then `Cc1nsc(-c2ccc(N3CCC4(CC3)Cc3ccccc3O4)nn2)n1` [Example 4, 1′-[6-(3-methyl-1,2,4-thiadiazol-5-yl)pyridazin-3-yl]-3H-spiro[1-benzofuran-2,4′-piperidine]], with 97%; and `Cc1nsc(-c2ccc(N3CCC4(CC3)CC(=O)c3ccccc3O4)nn2)n1` [Example 5, 1′-[6-(3-methyl-1,2,4-thiadiazol-5-yl)pyridazin-3-yl]spiro[chromene-2,4′-piperidin]-4(3H)-one], with 100%; and `Cc1nsc(-c2ccc(N3CCC4(CC3)NC(=O)c3ccccc3N4)nn2)n1` [Example 6, 1-[6-(3-methyl-1,2,4-thiadiazol-5-yl)pyridazin-3-yl]-1′H-spiro[piperidine-4,2′-quinazolin]-4′(3′H)-one], with 95%.
Then `C1=CC2(CCN(c3ccc(-c4ncns4)nn3)CC2)c2ccccc21` [Example 11, 1′-[6-(1,2,4-thiadiazol-5-yl)pyridazin-3-yl]spiro[indene-1,4′-piperidine]], with 93%.
Then `Cc1nsc(-c2ccc(N3CCC4(CC3)COc3ccccc34)nn2)n1` [Example 17, 1′-[6-(3-methyl-1,2,4-thiadiazol-5-yl)pyridazin-3-yl]spiro[1-benzofuran-3,4′-piperidine]], with 100%.
Turning to `Cc1nsc(-c2ccc(N3CCC4(C=Cc5ccccc5O4)CC3)nn2)n1` [Example 20, 1′-[6-(3-methyl-1,2,4-thiadiazol-5-yl)pyridazin-3-yl]spiro[chromene-2,4′-piperidine]], the inhibition at 10 µM stood at 98%.
Then `Cc1nsc(-c2ccc(N3CCC4(CC3)CN(c3cccc(F)c3)C(=O)O4)nn2)n1` [Example 29, 3-(3-fluorophenyl)-8-[6-(3-methyl-1,2,4-thiadiazol-5-yl)pyridazin-3-yl]-1-oxa-3,8-diazaspiro[4.5]decan-2-one], with 99%.
The same measure for `Cc1nsc(-c2ccc(N3CCC4(CC3)NC(=O)c3ccccc3O4)nn2)n1` [Example 31, 1′-[6-(3-methyl-1,2,4-thiadiazol-5-yl)pyridazin-3-yl]spiro[1,3-benzoxazine-2,4′-piperidin]-4(3H)-one]: 92%.
Then `Cc1nsc(-c2ccc(N3CCC4(CC3)CN(c3ccccc3)C(=O)CO4)nn2)n1` [Example 32, 9-[6-(3-methyl-1,2,4-thiadiazol-5-yl)pyridazin-3-yl]-4-phenyl-1-oxa-4,9-diazaspiro[5.5]undecan-3-one], with 94%; and `Cc1noc(-c2ccc(N3CCC4(C3)OCc3ccccc34)nn2)n1` (centres unmarked) [Example 43, 1′-[6-(3-methyl-1,2,4-oxadiazol-5-yl)pyridazin-3-yl]-3H-spiro[2-benzofuran-1,3′-pyrrolidine]], with 100%; and `Cc1noc(-c2ccc(N3CCC4(CC3)CN(c3ccc(F)cc3)C(=O)O4)nn2)n1` [Example 47, 3-(4-fluorophenyl)-8-[6-(3-methyl-1,2,4-oxadiazol-5-yl)pyridazin-3-yl]-1-oxa-3,8-diazaspiro[4.5]decan-2-one], with 93%.
Consider `Cc1nsc(-c2ccc(N3CCC4(COc5ccccc54)C3)nn2)n1` (centres unmarked) [Example 50, 1′-[6-(3-methyl-1,2,4-thiadiazol-5-yl)pyridazin-3-yl]spiro[1-benzofuran-3,3′-pyrrolidine]], for which the inhibition at 10 µM turned out to be 99%.
Take `Cc1noc(-c2ccc(N3CCC4(COc5ccccc54)C3)nn2)n1` (centres unmarked) [Example 51, 1′-[6-(3-methyl-1,2,4-oxadiazol-5-yl)pyridazin-3-yl]spiro[1-benzofuran-3,3′-pyrrolidine]]: the inhibition at 10 µM was 97%.
